These results are taken from US9512111B2, “N-sulfonylated tetrahydroquinolines and related bicyclic compounds for inhibition of RORγ activity and the treatment of disease” (Lycera Corporation, priority 2010, dated 2016).

The target of the assay is T1, RORγ-LBD (Homo sapiens, UniProt P51449).
T1 construct: HIS-tagged RORγ-LBD was recombinantly expressed in SF9 cells; made in house; host or cells: SF9 cells (baculovirus); unpurified lysate
T1 sequence (P51449 269-508 limits assumed): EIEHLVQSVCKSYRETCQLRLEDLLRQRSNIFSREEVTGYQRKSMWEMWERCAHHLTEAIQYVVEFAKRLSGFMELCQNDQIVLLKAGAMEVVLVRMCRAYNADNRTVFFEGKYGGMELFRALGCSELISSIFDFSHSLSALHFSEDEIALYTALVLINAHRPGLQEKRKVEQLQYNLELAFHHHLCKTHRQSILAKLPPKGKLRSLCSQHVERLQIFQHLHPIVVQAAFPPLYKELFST
As to the kind of experiment: RORγ-Ligand Binding Domain TR-FRET Assay. It is filed as biochemical. To be noted: Table 8, indazoles. A digest of the protocol: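 Unpurified His-tagged LBD in Sf9 lysate (~10 nM final) in 25 mM HEPES pH 7.0, 100 mM NaCl, 0.01% Tween, 0.1% BSA, with biotinylated SRC1-2 LXXLL peptide (450 nM), Eu anti-His (2 nM) and streptavidin-APC (60 nM). Incubated 4 h to overnight; IC50 from 665/615 nm TR-FRET ratio.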
For orientation: In TR-FRET formats the signal depends on donor and acceptor labels being close together.

Molecules are shown by their SMILES.

Compound `Cc1ccc(S(=O)(=O)n2ncc3ccc(NC(=O)c4c(F)cccc4Cl)cc32)c(F)c1` [Compound V-118] displayed an IC50 of less than 15 µM.

`Cc1ccccc1CS(=O)(=O)n1ncc2ccc(NC(=O)c3c(F)cccc3Cl)cc21` [Compound V-119] registered an IC50 of less than 15 µM.

`CC(C)c1ccc(S(=O)(=O)n2ncc3ccc(NC(=O)c4c(F)cccc4Cl)cc32)cc1` [Compound V-120] came in with an IC50 of less than 15 µM.

For the compound `N#Cc1cccc(S(=O)(=O)n2ncc3ccc(NC(=O)c4c(F)cccc4Cl)cc32)c1` [Compound V-121], the IC50 was less than 15 µM.

As for `CC(=O)c1cccc(S(=O)(=O)n2ncc3ccc(NC(=O)c4c(F)cccc4Cl)cc32)c1` [Compound V-122], the IC50 is less than 15 µM.

`Cc1cc(C)cc(S(=O)(=O)n2ncc3ccc(NC(=O)c4c(F)cccc4Cl)cc32)c1` [Compound V-123]: the IC50 is less than 15 µM.

Compound `Cc1cccc(S(=O)(=O)n2ncc3ccc(NC(=O)c4c(F)cccc4Cl)cc32)c1` [Compound V-124] gave an IC50 of less than 15 µM.

Turning to `Cc1ccc(S(=O)(=O)n2ncc3ccc(NC(=O)c4c(F)cccc4Cl)cc32)cc1F` [Compound V-125], the IC50 was less than 15 µM.

In the case of `O=C(Nc1ccc2cnn(S(=O)(=O)c3cc(Cl)cc(Cl)c3)c2c1)c1c(F)cccc1Cl` [Compound V-126], the IC50 was less than 15 µM.

The compound `Cc1ccc(S(=O)(=O)n2ncc3ccc(NC(=O)c4c(F)cccc4Cl)cc32)cc1Cl` [Compound V-127] had a 50% inhibitory concentration (IC50) of less than 15 µM.

Consider `O=C(Nc1ccc2cnn(S(=O)(=O)c3c(F)cccc3F)c2c1)c1c(F)cccc1Cl` [Compound V-128], for which the IC50 is less than 15 µM.

Turning to `Cc1ccccc1S(=O)(=O)n1ncc2ccc(NC(=O)c3c(F)cccc3Cl)cc21` [Compound V-129], the IC50 is less than 15 µM.

For the compound `O=C(Nc1ccc2cnn(S(=O)(=O)c3ccccc3OC(F)(F)F)c2c1)c1c(F)cccc1Cl` [Compound V-130], the IC50 was less than 15 µM.

The compound `O=C(Nc1ccc2cnn(S(=O)(=O)c3ccc(I)cc3)c2c1)c1c(F)cccc1Cl` [Compound V-131] showed an IC50 of less than 15 µM.

In turn, `O=C(Nc1ccc2cnn(S(=O)(=O)c3ccccc3C(F)(F)F)c2c1)c1c(F)cccc1Cl` [Compound V-132] registered an IC50 of less than 15 µM.

For `CNC(=O)Nc1ccc(S(=O)(=O)n2ncc3ccc(NC(=O)c4c(F)cccc4Cl)cc32)cc1Cl` [Compound V-133], the IC50 was less than 15 µM.

`CN(C)C(=O)Nc1ccc(S(=O)(=O)n2ncc3ccc(NC(=O)c4c(F)cccc4Cl)cc32)cc1` [Compound V-134] registered an IC50 of less than 15 µM.

`CNC(=O)Nc1ccc(S(=O)(=O)n2ncc3ccc(NC(=O)c4c(F)cccc4Cl)cc32)cc1` [Compound V-135] yielded an IC50 of less than 15 µM.

Compound `O=C(Nc1ccc2cnn(S(=O)(=O)c3ccccc3Cl)c2c1)c1c(F)cccc1Cl` [Compound V-136] yielded an IC50 of less than 15 µM.

`O=C(Nc1ccc2cnn(S(=O)(=O)Cc3cccc(C(F)(F)F)c3)c2c1)c1c(F)cccc1Cl` [Compound V-137] had an IC50 of less than 15 µM.

On to `O=C(Nc1ccc2cnn(S(=O)(=O)Cc3cc(Cl)cc(Cl)c3)c2c1)c1c(F)cccc1Cl` [Compound V-138], for which the IC50 was less than 15 µM.

Compound `O=C(Nc1ccc2cnn(S(=O)(=O)Cc3ccc(Cl)c(Cl)c3)c2c1)c1c(F)cccc1Cl` [Compound V-139] yielded an IC50 of less than 15 µM.

In turn, `O=C(Nc1ccc2cnn(S(=O)(=O)Cc3ccc(C(F)(F)F)cc3)c2c1)c1c(F)cccc1Cl` [Compound V-140] had an IC50 of less than 15 µM.

In turn, `CC(=O)c1ccc(S(=O)(=O)n2ncc3ccc(NC(=O)c4c(F)cccc4Cl)cc32)cc1` [Compound V-141] showed an IC50 of less than 15 µM.

`COC(=O)c1ccccc1S(=O)(=O)n1ncc2ccc(NC(=O)c3c(F)cccc3Cl)cc21` [Compound V-142] gave a concentration for half-maximal inhibition (IC50) of less than 15 µM.

Regarding `O=C(Nc1ccc2cnn(S(=O)(=O)c3ccccc3F)c2c1)c1c(F)cccc1Cl` [Compound V-143], the IC50 was less than 15 µM.

`COC(=O)c1sccc1S(=O)(=O)n1ncc2ccc(NC(=O)c3c(F)cccc3Cl)cc21` [Compound V-144] returned an IC50 of less than 15 µM.

Regarding `Cc1c(Cl)cccc1S(=O)(=O)n1ncc2ccc(NC(=O)c3c(F)cccc3Cl)cc21` [Compound V-145], the IC50 is less than 15 µM.

For the compound `N#Cc1ccc(S(=O)(=O)n2ncc3ccc(NC(=O)c4c(F)cccc4Cl)cc32)c(Cl)c1` [Compound V-146], the IC50 was less than 15 µM.

`Cn1cnc(S(=O)(=O)n2ncc3ccc(NC(=O)c4c(F)cccc4Cl)cc32)c1` [Compound V-147]: the IC50 was less than 15 µM.

`COc1cccc(S(=O)(=O)n2ncc3ccc(NC(=O)c4c(F)cccc4Cl)cc32)c1` [Compound V-148] yielded an IC50 of less than 15 µM.

`CC(=O)Nc1ccc(S(=O)(=O)n2ncc3ccc(NC(=O)c4c(F)cccc4Cl)cc32)cc1Cl` [Compound V-149] had a concentration for half-maximal inhibition (IC50) of less than 15 µM.

Compound `COC(=O)c1cc(S(=O)(=O)n2ncc3ccc(NC(=O)c4c(F)cccc4Cl)cc32)oc1C` [Compound V-150] registered an IC50 of less than 15 µM.

Take `COC(=O)c1ccc(S(=O)(=O)n2ncc3ccc(NC(=O)c4c(F)cccc4Cl)cc32)o1` [Compound V-151]: the IC50 is less than 15 µM.

Compound `COC(=O)c1cc(C)c(S(=O)(=O)n2ncc3ccc(NC(=O)c4c(F)cccc4Cl)cc32)s1` [Compound V-152] returned an IC50 of less than 15 µM.

The compound `O=C(Nc1ccc2cnn(S(=O)(=O)c3ccc(OC(F)(F)F)cc3)c2c1)c1c(F)cccc1Cl` [Compound V-153] had an IC50 of less than 15 µM.

Take `O=C(Nc1ccc2cnn(S(=O)(=O)c3ccc(Cl)c(Cl)c3)c2c1)c1c(F)cccc1Cl` [Compound V-154]: the IC50 is less than 15 µM.

The compound `O=C(Nc1ccc2cnn(S(=O)(=O)Cc3ccccc3)c2c1)c1c(F)cccc1Cl` [Compound V-155] yielded an IC50 of less than 15 µM.

For the compound `O=C(Nc1ccc2cnn(S(=O)(=O)c3ccc(Cl)cc3)c2c1)c1c(F)cccc1Cl` [Compound V-156], the IC50 was less than 15 µM.

`COc1ccc(S(=O)(=O)n2ncc3ccc(NC(=O)c4c(F)cccc4Cl)cc32)cc1` [Compound V-157] registered an IC50 of less than 15 µM.

In turn, `Cc1ccc(S(=O)(=O)n2ncc3ccc(NC(=O)c4c(F)cccc4Cl)cc32)cc1` [Compound V-158] came in with an IC50 of less than 15 µM.

Regarding `O=C(Nc1ccc2cnn(S(=O)(=O)c3ccccc3)c2c1)c1c(F)cccc1Cl` [Compound V-159], the IC50 is less than 15 µM.

`O=C(Nc1ccc2cnn(S(=O)(=O)Cc3ccc(F)cc3)c2c1)c1c(F)cccc1Cl` [Compound V-160] gave an IC50 of less than 15 µM.

The compound `O=C(Nc1ccc2cnn(S(=O)(=O)c3cc(F)cc(C(F)(F)F)c3)c2c1)c1c(F)cccc1Cl` [Compound V-161] had an IC50 of less than 15 µM.

`COc1ccc(S(=O)(=O)n2ncc3ccc(NC(=O)c4c(F)cccc4Cl)cc32)cn1` [Compound V-162] gave an IC50 of less than 15 µM.

`Cc1cc(F)ccc1S(=O)(=O)n1ncc2ccc(NC(=O)c3c(F)cccc3Cl)cc21` [Compound V-163] registered an IC50 of less than 15 µM.

With `COc1ccc(S(=O)(=O)n2ncc3ccc(NC(=O)c4c(F)cccc4Cl)cc32)cc1F` [Compound V-164], the IC50 is less than 15 µM.

Regarding `Cc1ccc(F)cc1S(=O)(=O)n1ncc2ccc(NC(=O)c3c(F)cccc3Cl)cc21` [Compound V-165], the IC50 was less than 15 µM.

In turn, `O=C(Nc1ccc2cnn(S(=O)(=O)c3ccc(F)cc3Cl)c2c1)c1c(F)cccc1Cl` [Compound V-166] displayed an IC50 of less than 15 µM.

The term IC50 denotes the concentration at which inhibition is half-maximal.
